Consider 25 molecules from PMC6572114, “Synthesis, Docking and Biological Evaluation of a Novel Class of Imidazothiazoles as IDO1 Inhibitors” (Molecules, 2019).

Where two headings read alike, the source gives them in different places.

Data set [1] addresses T1, purified recombinant human IDO1 (rhIDO1) (Homo sapiens, UniProt P14902).
T1 construct: purchased Origene
As to the kind of experiment: rhIDO1 enzymatic assay (conversion of L-Trp to L-KYN, p-dimethylaminobenzaldehyde readout). The conditions noted are these: for inhibition at 1 µM: rhIDO1, compound 1 µM, mean ± SE of two independent experiments; for IC50: rhIDO1, concentration-response curves, at least three experiments in triplicate. The class given is biochemical. Here is the method: All the 22 synthesized compounds were then biologically evaluated (Table 1). The compounds were tested for their ability to inhibit human IDO1 in an enzyme-based assay using a purified recombinant human IDO1 (rhIDO1) enzyme (Table 1). Each compound (1 µM) was added to the reaction buffer and the rhIDO1 conversion of L-Trp to L-KYN was determined spectrophotometrically using p-dimethylaminobenzaldehyde. As reference, imidazothiazole compound 1-((3-(4-bromophenyl)-3aH-thieno [2,3-b]pyrrol-4-yl)methyl)-3-(4-cyanophenyl)urea, displaying an IC50 value of 0.08 µM, was chosen.
rhIDO1 activity was determined as follows. In brief, the standard reaction mixture (200 μL) contained 50 mM potassium phosphate buffer (KPB) (pH 6.5), 20 mM ascorbic acid (neutralized with NaOH and HCl) (Sigma Aldrich), 100 μg/mL catalase (Sigma Aldrich), 10 μM methylene blue (Alfa Aesar, Heysham, Lancashire, UK), 100 µM L-tryptophan (Sigma Aldrich), 50 nM rhIDO1 (Origene, Bologna, Italy), and dimethyl sulfoxide (DMSO) solution of the compound (4 μL). The reaction was carried out at 37 °C for 60 min and stopped by the addition of 40 μL of 30% (w/v) CCl3COOH. After heating at 50 °C for 15 min, the reaction mixture was centrifuged at 1500× g for 10 min. The supernatant (150 μL) was transferred into a well of a 96-well microplate and mixed with 150 μL of 2% (w/v) p-dimethylaminobenzaldehyde (Ehrlich’s reagent) in acetic acid. The yellow pigment derived from kynurenine was measured at 490 nm using an Ultramark Microplate Imaging System (Bio-Rad, Hercules, CA, USA). IC50 values were calculated from concentration-response curves obtained in at least three different experiments run in triplicate.

Data set [2] concerns the target T1, purified recombinant human IDO1 (rhIDO1). The conditions noted are these: cited from earlier work.
In a further data set the test system is IDO1. Details: method as in PMID 29398544. The conditions noted are these: cited from earlier work.

T1 sequence (P14902 whole entry): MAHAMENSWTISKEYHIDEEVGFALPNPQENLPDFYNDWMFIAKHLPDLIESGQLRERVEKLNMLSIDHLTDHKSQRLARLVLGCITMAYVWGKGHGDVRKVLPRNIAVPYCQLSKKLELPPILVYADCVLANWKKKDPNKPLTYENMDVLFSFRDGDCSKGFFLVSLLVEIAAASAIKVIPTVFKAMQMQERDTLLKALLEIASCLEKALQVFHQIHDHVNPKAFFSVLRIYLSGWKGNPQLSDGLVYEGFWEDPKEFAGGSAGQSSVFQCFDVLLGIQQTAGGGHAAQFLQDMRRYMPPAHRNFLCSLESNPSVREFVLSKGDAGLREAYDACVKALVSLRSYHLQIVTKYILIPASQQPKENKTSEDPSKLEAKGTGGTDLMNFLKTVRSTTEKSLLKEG

Broadly, the melting point is the temperature, or range, at which the solid turns liquid. The inhibition is the percentage by which the read-out fell short of the control. Take `COc1ccc(-c2cn(Cc3cnc4scc(-c5ccc(Br)cc5)n34)nn2)cc1` [11c, 3-(4-Bromophenyl)-5-((4-(4-methoxyphenyl)-1H-1,2,3-triazol-1-yl)methyl)imidazo[2,1-b]thiazole]: the melting point is 118 to 119 °C (dec.). The inhibition at 1 µM in data set [1] was found to be 57 ± 13%. As for `N#CCCCCc1cn(Cc2cnc3scc(-c4ccc(Br)cc4)n23)nn1` [11k, 5-(1-((3-(4-Bromophenyl)imidazo[2,1-b]thiazol-5-yl)methyl)-1H-1,2,3-triazol-4-yl)pentanenitrile], the inhibition at 1 µM in data set [1] was determined as 62 ± 5.6%. Broadly, the IC50 is the concentration needed to halve the response being measured. As for `O=C(O)CCc1cn(Cc2cnc3scc(-c4ccc(Br)cc4)n23)nn1` [11j, 3-(1-((3-(4-Bromophenyl)imidazo[2,1-b]thiazol-5-yl)methyl)-1H-1,2,3-triazol-4-yl)propanoic acid], the melting point was 148 to 148.5 °C (dec.). Besides, in data set [1], the inhibition at 1 µM was determined as 81 ± 7.9% and the IC50 was found to be 1100 ± 70 nM.

`N#CCCCCc1cn(CC(=O)NCc2cnc3scc(-c4ccc(Br)cc4)n23)nn1` [12k, N-((3-(4-Bromophenyl)imidazo[2,1-b]thiazol-5-yl)methyl)-2-(4-(4-cyanobutyl)-1H-1,2,3-triazol-1-yl)acetamide] displayed a melting point of 179.5 to 180.5 °C. The inhibition at 1 µM in data set [1] is 50 ± 11%. For `Nc1ccc(-c2cn(Cc3cnc4scc(-c5ccc(Br)cc5)n34)nn2)cc1` [11d, 4-(1-((3-(4-Bromophenyl)imidazo[2,1-b]thiazol-5-yl)methyl)-1H-1,2,3-triazol-4-yl)aniline], in that order: 117 to 118 °C (dec.) and 17 ± 1.2%. For `O=C(Cn1cc(CCCO)nn1)NCc1cnc2scc(-c3ccc(Br)cc3)n12` [12i, N-((3-(4-Bromophenyl)imidazo[2,1-b]thiazol-5-yl)methyl)-2-(4-(3-hydroxypropyl)-1H-1,2,3-triazol-1-yl)acetamide], in that order: 169 to 170 °C (dec.) and 45 ± 2.8%. As for `Brc1ccc(-c2csc3ncc(Cn4cc(-c5ccccc5)nn4)n23)cc1` [11b, 3-(4-Bromophenyl)-5-((4-phenyl-1H-1,2,3-triazol-1-yl)methyl)imidazo[2,1-b]thiazole], the melting point was 199 to 199.5 °C (dec.). In data set [1], the inhibition at 1 µM was found to be 35 ± 2.7%. As to `O=C(O)CCc1cn(CC(=O)NCc2cnc3scc(-c4ccc(Br)cc4)n23)nn1` [12j, 3-(1-(2-(((3-(4-Bromophenyl)imidazo[2,1-b]thiazol-5-yl)methyl)amino)-2-oxoethyl)-1H-1,2,3-triazol-4-yl)propanoic acid], the melting point is 153 to 154 °C (dec.). In data set [1], the inhibition at 1 µM was 33 ± 4.5%. As for `OCCCc1cn(Cc2cnc3scc(-c4ccc(Br)cc4)n23)nn1` [11i, 3-(1-((3-(4-Bromophenyl)imidazo[2,1-b]thiazol-5-yl)methyl)-1H-1,2,3-triazol-4-yl)propan-1-ol], the inhibition at 1 µM in data set [1] was determined as 0%.

For `Nc1ccc(-c2cn(CC(=O)NCc3cnc4scc(-c5ccc(Br)cc5)n34)nn2)cc1` [12d, 2-(4-(4-Aminophenyl)-1H-1,2,3-triazol-1-yl)-N-((3-(4-bromophenyl)imidazo[2,1-b]thiazol-5-yl)methyl)acetamide], the melting point is 217 to 218 °C (dec.). Moreover, the inhibition at 1 µM in data set [1] came to 56 ± 4.7%.

Regarding `O=C(Cn1cc(C2CC2)nn1)NCc1cnc2scc(-c3ccc(Br)cc3)n12` [12g, N-((3-(4-Bromophenyl)imidazo[2,1-b]thiazol-5-yl)methyl)-2-(4-cyclopropyl-1H-1,2,3-triazol-1-yl)acetamide], the melting point is 225 to 225.5 °C (dec.). Also, in data set [1], the inhibition at 1 µM came out at 70 ± 9.2% and the IC50 was 200 ± 10 nM.

Consider `Brc1ccc(-c2csc3ncc(Cn4cc(Cc5ccccc5)nn4)n23)cc1` [11a, 5-((4-Benzyl-1H-1,2,3-triazol-1-yl)methyl)-3-(4-bromophenyl)imidazo[2,1-b]thiazole], for which the melting point fell in the range of 106.5 to 107.5 °C. Further, in data set [1], the inhibition at 1 µM was 30 ± 6.7%. Regarding `N#Cc1ccc(NC(=O)NCC2=CN=C3SC=C(c4ccc(Br)cc4)C23)cc1` (stereo not shown) [1-((3-(4-bromophenyl)-3aH-thieno [2,3-b]pyrrol-4-yl)methyl)-3-(4-cyanophenyl)urea], the IC50 in data set [2] (rhIDO1, read-out: IC50 (rhIDO1)) is 80 nM. `COc1ccc(-c2cn(CC(=O)NCc3cnc4scc(-c5ccc(Br)cc5)n34)nn2)cc1` [12c, N-((3-(4-Bromophenyl)imidazo[2,1-b]thiazol-5-yl)methyl)-2-(4-(4-methoxyphenyl)-1H-1,2,3-triazol-1-yl)acetamide]: the melting point lay within 183 to 184 °C. Also, the inhibition at 1 µM in data set [1] was 5 ± 1.2%. For `O=C(Cn1cc(C2(O)CCCCC2)nn1)NCc1cnc2scc(-c3ccc(Br)cc3)n12` [12h, N-((3-(4-Bromophenyl)imidazo[2,1-b]thiazol-5-yl)methyl)-2-(4-(1-hydroxycyclohexyl)-1H-1,2,3-triazol-1-yl)acetamide], in that order: 165 to 166 °C and 63 ± 4.1%. `O=C(COC(=O)Cc1ccc(O)cc1)NCc1cnc2scc(-c3ccc(Br)cc3)n12` [compound 2]: the “ability to permeate the cell and inhibit IDO1 in a cell-based assay” value in the data set with IDO1 is “not able to significantly permeate the cell and to inhibit IDO1 in a cell-based assay”. On to `Brc1ccc(-c2csc3ncc(Cn4cc(C5CC5)nn4)n23)cc1` [11g, 3-(4-Bromophenyl)-5-((4-cyclopropyl-1H-1,2,3-triazol-1-yl)methyl)imidazo[2,1-b]thiazole], for which the melting point lay within 145.5 to 146.5 °C. Also, the inhibition at 1 µM in data set [1] amounted to 61 ± 7.1%.

As to `OC1(c2cn(Cc3cnc4scc(-c5ccc(Br)cc5)n34)nn2)CCCCC1` [11h, 1-(1-((3-(4-Bromophenyl)imidazo[2,1-b]thiazol-5-yl)methyl)-1H-1,2,3-triazol-4-yl)cyclohexanol], the melting point is 163.5 to 164.5 °C (dec.). Further, the inhibition at 1 µM in data set [1] turned out to be 35 ± 2.4%. For `CN(CC(=O)NCc1cnc2scc(-c3ccc(Br)cc3)n12)C(=O)Cc1ccc([N+](=O)[O-])cc1` [compound 3], the IC50 in data set [2] (first series, published in 2018, read-out: IC50) was 800 nM. For the same molecule, the “ability to permeate the cell and inhibit IDO1 in a cell-based assay” value with IDO1 is “not able to significantly permeate the cell and to inhibit IDO1 in a cell-based assay”.

For `O=C(Cn1cc(-c2ccccc2)nn1)NCc1cnc2scc(-c3ccc(Br)cc3)n12` [12b, N-((3-(4-Bromophenyl)imidazo[2,1-b]thiazol-5-yl)methyl)-2-(4-phenyl-1H-1,2,3-triazol-1-yl)acetamide], the melting point was 251.5 to 252.5 °C (dec.). Also, the inhibition at 1 µM in data set [1] was determined as 61 ± 5.5%. `O=C(Cn1cc(Cc2ccccc2)nn1)NCc1cnc2scc(-c3ccc(Br)cc3)n12` [12a, 2-(4-Benzyl-1H-1,2,3-triazol-1-yl)-N-((3-(4-bromophenyl)imidazo[2,1-b]thiazol-5-yl)methyl)acetamide] registered a melting point of 177 to 177.5 °C. Also, in data set [1], the inhibition at 1 µM was determined as 63 ± 4.3%. For `N#Cc1ccc(-c2cn(Cc3cnc4scc(-c5ccc(Br)cc5)n34)nn2)cc1` [11e, 4-(1-((3-(4-Bromophenyl)imidazo[2,1-b]thiazol-5-yl)methyl)-1H-1,2,3-triazol-4-yl)benzonitrile], in that order: 190 to 191 °C (dec.) and 28 ± 1.5%.

For the molecule `N#Cc1ccc(-c2cn(CC(=O)NCc3cnc4scc(-c5ccc(Br)cc5)n34)nn2)cc1` [12e, N-((3-(4-Bromophenyl)imidazo[2,1-b]thiazol-5-yl)methyl)-2-(4-(4-cyanophenyl)-1H-1,2,3-triazol-1-yl)acetamide], the melting point was 267 to 267.5 °C (dec.). In addition, the inhibition at 1 µM in data set [1] is 50 ± 4.5%. `N#CCc1ccc(-c2cn(CC(=O)NCc3cnc4scc(-c5ccc(Br)cc5)n34)nn2)cc1` [12f, N-((3-(4-Bromophenyl)imidazo[2,1-b]thiazol-5-yl)methyl)-2-(4-(4-(cyanomethyl)phenyl)-1H-1,2,3-triazol-1-yl)acetamide] displayed a melting point of 231 to 231.5 °C. Moreover, the inhibition at 1 µM in data set [1] is 55 ± 7.2%. With `N#CCc1ccc(-c2cn(Cc3cnc4scc(-c5ccc(Br)cc5)n34)nn2)cc1` [11f, 2-(4-(1-((3-(4-Bromophenyl)imidazo[2,1-b]thiazol-5-yl)methyl)-1H-1,2,3-triazol-4-yl)phenyl)acetonitrile], the melting point lay in the range of 121.5 to 122.5 °C. Further, in data set [1], the inhibition at 1 µM turned out to be 74 ± 5.8% and the IC50 worked out at 500 ± 40 nM.
